Measured values: ChEMBL document CHEMBL1201862, “PubChem BioAssay data set” (2004)
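Following 48 hours of exposure in 96-well plates, responses at five concentrations were used to interpolate endpoints linearly. The concentration for 50% growth inhibition is given as GI50.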 Calls of active or inactive are those of the source. No stated cut-off is given here; in the data, active = GI50 up to about 1.1 µM and inactive = higher.

Assays:
Experiment in all cases: NCI tumour cell line growth inhibition, 48 h
786-0 = system: 786-0
A549 = system: A549
ACHN = system: ACHN
CAKI-1 = system: CAKI-1
CCRF-CEM = system: CCRF-CEM
COLO 205 = system: COLO 205
DLD-1 = system: DLD-1
DMS-114 = system: DMS-114
DMS-273 = system: DMS-273
EKVX = system: EKVX
HCC 2998 = system: HCC 2998
HCT-116 = system: HCT-116
HCT-15 = system: HCT-15
HL-60 = system: HL-60
HOP-18 = system: HOP-18
HOP-62 = system: HOP-62
HOP-92 = system: HOP-92
HT-29 = system: HT-29
IGROV-1 = system: IGROV-1
K562 = system: K562
KM-20L2 = system: KM-20L2
KM12 = system: KM12
LOX IMVI = system: LOX IMVI
LXFL 529 = system: LXFL 529
M14 = system: M14
M19-MEL = system: M19-MEL
MOLT-4 = system: MOLT-4
Malme-3M = system: Malme-3M
NCI-H226 = system: NCI-H226
NCI-H23 = system: NCI-H23
NCI-H460 = system: NCI-H460
NCI-H522 = system: NCI-H522
OVCAR-3 = system: OVCAR-3
OVCAR-4 = system: OVCAR-4
OVCAR-5 = system: OVCAR-5
OVCAR-8 = system: OVCAR-8
RPMI-8226 = system: RPMI-8226
RXF 393 = system: RXF 393
SF-268 = system: SF-268
SF-295 = system: SF-295
SF-539 = system: SF-539
SK-MEL-28 = system: SK-MEL-28
SK-MEL-2 = system: SK-MEL-2
SK-MEL-5 = system: SK-MEL-5
SK-OV-3 = system: SK-OV-3
SN12C = system: SN12C
SNB-19 = system: SNB-19
SNB-75 = system: SNB-75
SNB-78 = system: SNB-78
SR = system: SR
SW-620 = system: SW-620
TK-10 = system: TK-10
U-251 = system: U-251
UACC-257 = system: UACC-257
UACC-62 = system: UACC-62
UO-31 = system: UO-31
XF498 = system: XF498
DU-145 = system: DU-145
MCF7 = system: MCF7
MDA-MB-435 = system: MDA-MB-435
NCI/ADR-RES = system: NCI/ADR-RES
RXF 631 = system: RXF 631
T47D = system: T47D
A498 = system: A498

Measured: GI50

COc1cccc(/C(C=O)=C(\Cl)c2ccc(OC)c(OC)c2)c1
inactive: 786-0 16.1 µM | A549 19.5 µM | ACHN 13.6 µM | CAKI-1 29.2 µM | CCRF-CEM 7.74 µM | COLO 205 14.5 µM | DLD-1 12.9 µM | DMS-114 15.1 µM | DMS-273 14 µM | EKVX 17.9 µM | HCC 2998 16.1 µM | HCT-116 10.6 µM | HL-60 3.97 µM | HOP-18 13.6 µM | HOP-62 12.3 µM | HOP-92 20.6 µM | HT-29 14.4 µM | IGROV-1 21.1 µM | K562 13.6 µM | KM-20L2 19.7 µM | KM12 15.7 µM | LOX IMVI 15 µM | LXFL 529 11.6 µM | M14 17.6 µM | M19-MEL 11.3 µM | MOLT-4 13.2 µM | Malme-3M 15.6 µM | NCI-H226 14 µM | NCI-H23 12.2 µM | NCI-H460 13.3 µM | NCI-H522 10.3 µM | OVCAR-3 16.6 µM | OVCAR-4 16 µM | OVCAR-5 19 µM | OVCAR-8 13.8 µM | RPMI-8226 11.5 µM | RXF 393 12.3 µM | SF-268 11.7 µM | SF-295 15.2 µM | SF-539 16.6 µM | SK-MEL-28 15.1 µM | SK-MEL-2 19.2 µM | SK-MEL-5 12.7 µM | SK-OV-3 26.1 µM | SN12C 14.7 µM | SNB-19 3.94 µM | SNB-75 5.04 µM | SNB-78 13 µM | SR 13.5 µM | SW-620 15.9 µM | TK-10 28.1 µM | U-251 13.9 µM | UACC-257 14.4 µM | UACC-62 4.63 µM | UO-31 14.5 µM | XF498 17.3 µM
12.9 µM: HCT-15

COc1cc2c(c(OC)c1OC)-c1ccc(OC)c(=O)cc1[C@@H](NC(C)=O)CC2 [COLCHICINE]
active: DLD-1 0.0625 µM | DU-145 0.659 µM | HCT-116 0.0168 µM | HL-60 < 0.0625 µM | K562 0.0135 µM | KM-20L2 < 0.0625 µM | MCF7 0.0625 µM | MDA-MB-435 < 0.01 µM | MOLT-4 0.0237 µM | NCI-H522 0.0119 µM | NCI/ADR-RES 0.845 µM | RXF 631 0.0363 µM | UO-31 0.56 µM
inactive: EKVX 49 µM | HOP-18 > 68.9 µM | OVCAR-4 12.9 µM | OVCAR-5 7.18 µM | T47D > 78.3 µM | TK-10 23.7 µM

CC(C)(C)C(=O)OCC1CCC(n2cnc3c(=O)[nH]c(N)nc32)O1 (configuration not stated)
inactive: 786-0 > 100 µM | A498 > 100 µM | A549 > 100 µM | ACHN > 100 µM | CAKI-1 > 100 µM | CCRF-CEM > 100 µM | COLO 205 > 100 µM | DMS-114 > 100 µM | DMS-273 > 100 µM | EKVX > 100 µM | HCC 2998 > 100 µM | HCT-116 > 100 µM | HOP-18 > 100 µM | HOP-62 > 100 µM | HOP-92 > 100 µM | HT-29 > 100 µM | IGROV-1 > 100 µM | K562 > 100 µM | KM-20L2 > 100 µM | KM12 > 100 µM | LOX IMVI > 100 µM | M14 > 100 µM | M19-MEL > 100 µM | Malme-3M > 100 µM | NCI-H226 > 100 µM | NCI-H23 > 100 µM | NCI-H460 > 100 µM | OVCAR-3 > 100 µM | OVCAR-4 > 100 µM | OVCAR-5 > 100 µM | OVCAR-8 > 100 µM | RPMI-8226 > 100 µM | SF-268 > 100 µM | SF-295 > 100 µM | SF-539 > 100 µM | SK-MEL-28 > 100 µM | SK-MEL-2 > 100 µM | SK-MEL-5 > 100 µM | SK-OV-3 > 100 µM | SN12C > 100 µM | SNB-19 > 100 µM | SNB-75 40 µM | SNB-78 > 100 µM | SW-620 > 100 µM | TK-10 > 100 µM | U-251 > 100 µM | UACC-257 > 100 µM | UACC-62 > 100 µM | UO-31 > 100 µM | XF498 > 100 µM
> 100 µM: HCT-15
